Experiments:
[1] = system: primary human T-cells; assay: IL2 secretion measurements in CD3-stimulated T-cells; type: cell-based; conditions: CD3 condition; for Emax IL2 (% activation): 24 hours, 20 μM reference compound A1 = 100%; for EC50: Homo sapiens, T-cell, IL2 secretion after 24 hours, read-out: Tcell IL2 CD3 EC50
Method in brief: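 Expanded primary human T-cells (100 k/well, RPMI + 5% human serum) on plate-bound anti-CD3 (donor-titrated) or PBS counter-screen wells, 5–6 pt dose response from 20 or 10 μM top (dilution factor 3.333), 0.2% DMSO final. IL-2 in 24 h supernatant by ProQuantum immunoassay or ELISA. Normalised to DMSO (0%) and 20 μM reference A1 (100%); EC50 and Emax from sigmoidal fit.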

[2] = molecular target: DGKalpha (hDGKalpha(1-735)-N-His) (Homo sapiens (Human), UniProt P23743); assay: In vitro DGK inhibition assay, ADP-Glo (in house), DGKalpha; type: biochemical; conditions: DLG liposomes, 25 μM ATP, 4 nM enzyme, 1 hour reaction
DGKalpha (hDGKalpha(1-735)-N-His), sequence (P23743 whole entry): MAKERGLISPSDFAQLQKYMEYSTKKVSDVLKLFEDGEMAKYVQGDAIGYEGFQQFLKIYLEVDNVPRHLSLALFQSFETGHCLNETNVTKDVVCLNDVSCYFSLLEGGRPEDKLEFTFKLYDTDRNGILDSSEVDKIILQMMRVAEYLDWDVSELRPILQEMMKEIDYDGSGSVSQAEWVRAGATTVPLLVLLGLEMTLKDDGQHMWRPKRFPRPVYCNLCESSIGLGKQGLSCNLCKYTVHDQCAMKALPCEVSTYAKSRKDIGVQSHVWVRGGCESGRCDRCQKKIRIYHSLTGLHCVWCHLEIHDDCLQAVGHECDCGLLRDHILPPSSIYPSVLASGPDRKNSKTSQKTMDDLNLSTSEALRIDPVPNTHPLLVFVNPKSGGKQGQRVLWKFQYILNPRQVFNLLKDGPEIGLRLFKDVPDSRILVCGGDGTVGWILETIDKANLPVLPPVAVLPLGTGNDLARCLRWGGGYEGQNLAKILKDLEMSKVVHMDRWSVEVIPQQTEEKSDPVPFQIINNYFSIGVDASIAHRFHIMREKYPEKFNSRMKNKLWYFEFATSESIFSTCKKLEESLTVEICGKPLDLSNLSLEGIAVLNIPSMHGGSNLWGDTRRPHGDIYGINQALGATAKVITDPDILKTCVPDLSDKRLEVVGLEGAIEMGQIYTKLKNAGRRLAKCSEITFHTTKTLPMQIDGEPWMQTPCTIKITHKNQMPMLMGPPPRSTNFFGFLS

SMILES | EC50 [1] | IC50 [2] | Emax IL2 (% activation) [1]
CC(C)(C#N)c1cncc(-c2cc3c(cc2F)S(=O)(=O)C[C@H](N)C(=O)N3Cc2ccc(-c3noc(C(F)(F)F)n3)cc2)c1 [Example 23, 2-[5-[(3R)-3-amino-8-fluoro-1,1,4-triketo-5-[4-[5-(trifluoromethyl)-1,2,4-oxadiazol-3-yl]benzyl]-2,3-dihydro-1λ6,5-benzothiazepin-7-yl]-3-pyridyl]-2-methyl-propionitrile] | 3.54 µM | 17.2 µM | 213 % activation
CC(C)(c1cncc(-c2cc3c(cc2F)S(=O)(=O)C[C@H](N)C(=O)N3Cc2ccc(-c3noc(C(F)(F)F)n3)cc2)c1)S(C)(=O)=O [Example 25, (3R)-3-amino-8-fluoro-1,1-diketo-7-[5-(1-mesyl-1-methyl-ethyl)-3-pyridyl]-5-[4-[5-(trifluoromethyl)-1,2,4-oxadiazol-3-yl]benzyl]-2,3-dihydro-1λ6,5-benzothiazepin-4-one] | 4.52 µM | 22.2 µM | 168 % activation
COc1ccc(-c2ccc(CN3C(=O)[C@@H](N)CS(=O)(=O)c4cc(F)c(-c5cnc(C)c(C)c5)cc43)cc2)cc1 [Example 28, (3R)-3-amino-7-(5,6-dimethyl-3-pyridyl)-8-fluoro-5-[[4-(4-methoxyphenyl)phenyl]methyl]-1,1-dioxo-2,3-dihydro-1λ6,5-benzothiazepin-4-one] | 0.763 µM | 3.06 µM | 237 % activation

The next compounds have a lower EC50 [1] than those just listed; values first:

EC50 [1] | IC50 [2] | SMILES | Emax IL2 (% activation) [1]
0.459 µM | – | CC(C)(C)c1cncc(-c2cc3c(cc2F)S(=O)(=O)C[C@H](N)C(=O)N3Cc2ccc(Cl)cc2)c1 [Example 2, (3R)-3-amino-7-(5-tert-butyl-3-pyridyl)-5-[(4-chlorophenyl)methyl]-8-fluoro-1,1-dioxo-2,3-dihydro-1λ6,5-benzothiazepin-4-one] | 109 % activation
0.119 µM | – | CC(C)(C)c1cnnc(-c2cc3c(cc2F)S(=O)(=O)C[C@H](N)C(=O)N3Cc2ccc(Cl)cc2)n1 [Example 11, (3R)-3-amino-7-(5-tert-butyl-1,2,4-triazin-3-yl)-5-[(4-chlorophenyl)methyl]-8-fluoro-1,1-dioxo-2,3-dihydro-1λ6,5-benzothiazepin-4-one] | 79 % activation
